Test results published in US8680159B2, “Bradykinin 1 receptor modulating compounds” (Gruenenthal GmbH, priority 2010, dated 2014).

Legend:
[1] = target: T1, human B1R receptor (CHO K1 cells stably transfected with the human B1R gene) (Homo sapiens, UniProt P46663); experiment: Functional study on the bradykinin receptor 1 (B1R), Ca2+ fluorescence (Fluo-4) FLIPR/Novostar assay, hB1R cells; format: cell-based; conditions: CHO-K1, read-out: % inhibition (human B1R) at 10 μM
T1 construct: expressed in transfected cells; host or cells: CHO K1 cells (Chinese hamster ovary), stably transfected
T1 sequence (P46663 1-353): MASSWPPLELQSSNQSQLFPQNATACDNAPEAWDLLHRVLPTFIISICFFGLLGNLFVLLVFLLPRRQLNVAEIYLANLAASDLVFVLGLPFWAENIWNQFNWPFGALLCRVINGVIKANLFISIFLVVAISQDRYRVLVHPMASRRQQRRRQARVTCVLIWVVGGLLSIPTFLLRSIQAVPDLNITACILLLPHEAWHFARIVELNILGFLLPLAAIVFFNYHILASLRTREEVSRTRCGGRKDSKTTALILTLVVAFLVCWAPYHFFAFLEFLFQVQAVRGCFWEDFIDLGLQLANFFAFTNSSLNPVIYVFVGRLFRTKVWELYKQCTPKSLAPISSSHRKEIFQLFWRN
In short: (§1)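 Ca2+ influx (Fluo-4, peak fluorescence, λex 488/λem 540 nm) was measured in CHO K1 lines expressing rat or human B1R. After a 10 μM test-compound pre-addition scoring % activation, cells received EC80 agonist: Des-Arg9-bradykinin for rat, Lys-Des-Arg9-bradykinin for human. Antagonism was expressed as % of maximum inhibition, with IC50 from varied concentrations.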

[2] = target: T2, B1R receptor of the rat (CHO K1 cells stably transfected with the B1R gene of the rat) (Rattus norvegicus, UniProt P97583); experiment: Functional study on the bradykinin receptor 1 (B1R), Ca2+ fluorescence (Fluo-4) FLIPR/Novostar assay, rB1R cells; format: cell-based; conditions: CHO-K1, 10 μM, read-out: % inhibition (rat B1R) at 10 μM
T2 construct: expressed in transfected cells; host or cells: CHO K1 cells (Chinese hamster ovary), stably transfected
T2 sequence (P97583 1-337): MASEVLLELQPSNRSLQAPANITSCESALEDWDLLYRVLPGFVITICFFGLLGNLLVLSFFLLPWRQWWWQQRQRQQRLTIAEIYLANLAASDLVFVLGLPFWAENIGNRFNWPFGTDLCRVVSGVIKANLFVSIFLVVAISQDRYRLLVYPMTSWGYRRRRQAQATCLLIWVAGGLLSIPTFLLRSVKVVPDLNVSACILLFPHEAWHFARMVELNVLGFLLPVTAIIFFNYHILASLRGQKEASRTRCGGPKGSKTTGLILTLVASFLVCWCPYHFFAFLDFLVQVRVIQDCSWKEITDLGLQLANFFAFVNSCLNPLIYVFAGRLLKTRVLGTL
In short: as §1

**Q.** `CN(C(=O)c1ccc2c(c1)[C@H](NC(=O)c1ccccc1Cl)CC2)C1CCN(Cc2ccnc(N3CCCC3)c2)CC1` [Example H-48, (3R)-3-[(2-Chloro-benzoyl)amino]-N-methyl-N-[1-[(2-pyrrolidin-1-yl-pyridin-4-yl)-methyl]-piperidin-4-yl]-2,3-dihydro-1H-indene-5-carboxylic acid amide] was tested. Which inhibition at 10 µM [1] did it give?
**A.** Its inhibition at 10 µM is 11%.

**Q.** And the inhibition at 10 µM [2]?
**A.** The inhibition at 10 µM was 75%.

**Q.** For `Cc1cc(N2CCC(CN(C)C(=O)c3ccc4c(c3)[C@H](NC(=O)c3ccccc3Cl)CC4)CC2)ccn1` [Example H-49, (3R)-3-[(2-Chloro-benzoyl)amino]-N-methyl-N-[[1-(2-methyl-pyridin-4-yl)-piperidin-4-yl]-methyl]-2,3-dihydro-1H-indene-5-carboxylic acid amide], which inhibition at 10 µM [1] is on record?
**A.** The inhibition at 10 µM was 85%.

**Q.** And the inhibition at 10 µM [2]?
**A.** The inhibition at 10 µM was 101%.

**Q.** For `COc1ccc(N2CCC(N(C)C(=O)c3ccc4c(c3)[C@H](NC(=O)c3ccccc3Cl)CC4)CC2)cc1` [Example H-50, (3R)-3-[(2-Chloro-benzoyl)amino]-N-[1-(4-methoxyphenyl)-piperidin-4-yl]-N-methyl-2,3-dihydro-1H-indene-5-carboxylic acid amide], which inhibition at 10 µM [1] is on record?
**A.** The inhibition at 10 µM was 23%.

**Q.** What about the inhibition at 10 µM [2] of the same compound?
**A.** The inhibition at 10 µM was 86%.

**Q.** With `CN(C(=O)c1ccc2c(c1)[C@H](NC(=O)C1(c3ccccc3Cl)CC1)CC2)C1CCN(c2ccncc2)CC1` [Example H-51, (3R)-3-[[1-(2-Chlorophenyl)-cyclopropanecarbonyl]amino]-N-methyl-N-(1-pyridin-4-yl-piperidin-4-yl)-2,3-dihydro-1H-indene-5-carboxylic acid amide] as the compound, how does the inhibition at 10 µM [1] read?
**A.** The inhibition at 10 µM was 99%.

**Q.** And the inhibition at 10 µM [2]?
**A.** Its inhibition at 10 µM is 105%.

**Q.** Which results are given for `Cc1cc(N2CCC(CN(C)C(=O)c3ccc4c(c3)CC[C@H]4N3Cc4cccc(Cl)c4C3=O)CC2)ccn1` [Example H-52, (1R)-1-(4-Chloro-3-oxo-1,2-dihydro-isoindol-2-yl)-N-methyl-N-[[1-(2-methyl-pyridin-4-yl)-piperidin-4-yl]-methyl]-2,3-dihydro-1H-indene-5-carboxylic acid amide]?
**A.** inhibition at 10 µM [1]: 98%; inhibition at 10 µM [2]: 73%

**Q.** What does the source list for `CN(C(=O)c1ccc2c(c1)CC[C@H]2N1Cc2cccc(Cl)c2C1=O)C1CCN(Cc2ccnc(N3CCCC3)c2)CC1` [Example H-53, (1R)-1-(4-Chloro-3-oxo-1,2-dihydro-isoindol-2-yl)-N-methyl-N-[1-[(2-pyrrolidin-1-yl-pyridin-4-yl)-methyl]-piperidin-4-yl]-2,3-dihydro-1H-indene-5-carboxylic acid amide]?
**A.** inhibition at 10 µM [1]: 56%; inhibition at 10 µM [2]: 50%

**Q.** For `CN(C(=O)c1ccc2c(c1)[C@H](NC(=O)c1ccccc1Cl)CC2)C1CCN(c2ccc(Cl)cc2)CC1` [Example H-54, (3R)-3-[(2-Chloro-benzoyl)amino]-N-[1-(4-chlorophenyl)-piperidin-4-yl]-N-methyl-2,3-dihydro-1H-indene-5-carboxylic acid amide], which inhibition at 10 µM [1] is on record?
**A.** Its inhibition at 10 µM is 29%.

**Q.** What about the inhibition at 10 µM [2] of the same compound?
**A.** Its inhibition at 10 µM is 93%.

**Q.** Which results are given for `Cc1cc(N2CCC(N(C)C(=O)c3ccc4c(c3)[C@H](NC(=O)c3ccccc3Cl)CC4)CC2)ccn1` [Example H-55, (3R)-3-[(2-Chloro-benzoyl)amino]-N-methyl-N-[1-(2-methyl-pyridin-4-yl)-piperidin-4-yl]-2,3-dihydro-1H-indene-5-carboxylic acid amide]?
**A.** inhibition at 10 µM [1]: 99%; inhibition at 10 µM [2]: 104%

**Q.** What does the source list for `Cc1cc(N2CCC(CCNC(=O)c3ccc4c(c3)[C@H](NC(=O)c3ccccc3Cl)CC4)CC2)ccn1` [Example H-56, (3R)-3-[(2-Chloro-benzoyl)amino]-N-[2-[1-(2-methyl-pyridin-4-yl)-piperidin-4-yl]-ethyl]-2,3-dihydro-1H-indene-5-carboxylic acid amide]?
**A.** inhibition at 10 µM [1]: 99%; inhibition at 10 µM [2]: 102%

**Q.** Which results are given for `CN(C(=O)c1cc2c(cc1F)[C@H](NC(=O)c1ccccc1Cl)CC2)C1CCN(c2ccncc2)CC1` [Example H-57, (1R)-1-[(2-Chloro-benzoyl)amino]-6-fluoro-N-methyl-N-(1-pyridin-4-yl-piperidin-4-yl)-2,3-dihydro-1H-indene-5-carboxylic acid amide]?
**A.** inhibition at 10 µM [1]: 100%; inhibition at 10 µM [2]: 100%

**Q.** Which results are given for `CN(C(=O)c1ccc2c(c1)[C@H](NC(=O)C(C)(C)c1ccccc1Cl)CC2)C1CCN(c2ccncc2)CC1` [Example H-58, (3R)-3-[[2-(2-Chlorophenyl)-2-methyl-propanoyl]amino]-N-methyl-N-(1-pyridin-4-yl-piperidin-4-yl)-2,3-dihydro-1H-indene-5-carboxylic acid amide]?
**A.** inhibition at 10 µM [1]: 100%; inhibition at 10 µM [2]: 98%

**Q.** How did the inhibition at 10 µM [1] turn out when `Cc1cc(N2CCC(N(C)C(=O)c3ccc4c(c3)[C@H](NC(=O)c3ccccc3Cl)CC4)CC2)nc(C)n1` [Example H-59, (3R)-3-[(2-Chloro-benzoyl)amino]-N-[1-(2,6-dimethyl-pyrimidin-4-yl)-piperidin-4-yl]-N-methyl-2,3-dihydro-1H-indene-5-carboxylic acid amide] was run?
**A.** The inhibition at 10 µM was 99%.

**Q.** And the inhibition at 10 µM [2]?
**A.** The inhibition at 10 µM was 103%.

**Q.** What does the source list for `CN(C(=O)c1ccc2c(c1)[C@H](NC(=O)c1ccccc1Cl)CC2)C1CCN(c2ccncc2)CC1(C)C` (stereo partly drawn) [Example H-60, (3R)-3-[(2-Chloro-benzoyl)amino]-N-(3,3-dimethyl-1-pyridin-4-yl-piperidin-4-yl)-N-methyl-2,3-dihydro-1H-indene-5-carboxylic acid amide]?
**A.** inhibition at 10 µM [1]: 99%; inhibition at 10 µM [2]: 103%

**Q.** Which inhibition at 10 µM [1] does the source give for `CN(C(=O)c1ccc2c(c1)[C@H](NC(=O)c1ccccc1Cl)CC2)C1CCC(c2ccncc2)CC1` (stereo partly drawn) [Example H-61, (3R)-3-[(2-Chloro-benzoyl)amino]-N-methyl-N-(4-pyridin-4-yl-cyclohexyl)-2,3-dihydro-1H-indene-5-carboxylic acid amide] here?
**A.** Its inhibition at 10 µM is 32%.

**Q.** What about the inhibition at 10 µM [2] of the same compound?
**A.** The inhibition at 10 µM was 77%.

**Q.** What does the source list for `Cc1cc(C(=O)N[C@@H]2CCc3ccc(C(=O)N(C)C4CCN(c5ccncc5)CC4)cc32)no1` [Example H-62, 5-Methyl-N-[(1R)-6-[methyl-(1-pyridin-4-yl-piperidin-4-yl)-carbamoyl]-2,3-clihydro-1H-inden-1-yl]-isoxazole-3-carboxylic acid amide]?
**A.** inhibition at 10 µM [1]: 100%; inhibition at 10 µM [2]: 99%

**Q.** `CN(C(=O)c1ccc2c(c1)[C@H](NC(=O)CC(F)(F)F)CC2)C1CCN(c2ccncc2)CC1` [Example H-63, (3R)-N-Methyl-N-(1-pyridin-4-yl-piperidin-4-yl)-3-(3,3,3-trifluoro-propanoylamino)-2,3-dihydro-1H-indene-5-carboxylic acid amide] was tested. Which inhibition at 10 µM [1] did it give?
**A.** The inhibition at 10 µM was 100%.

**Q.** What about the inhibition at 10 µM [2] of the same compound?
**A.** Its inhibition at 10 µM is 96%.

**Q.** What does the source list for `CN(CC1CCN(c2ccncc2)CC1)C(=O)c1ccc2c(c1)[C@H](NC(=O)c1ccccc1Cl)CC2` [Example H-64, (3R)-3-[(2-Chloro-benzoyl)amino]-N-methyl-N-[(1-pyridin-4-yl-piperidin-4-yl)-methyl]-2,3-dihydro-1H-indene-5-carboxylic acid amide]?
**A.** inhibition at 10 µM [1]: 96%; inhibition at 10 µM [2]: 97%

**Q.** What does the source list for `CC(C)CN(C(=O)c1ccccc1Cl)[C@@H]1CCc2ccc(C(=O)N(C)C3CCN(c4ccncc4)CC3)cc21` [Example H-65, (3R)-3-[(2-Chloro-benzoyl)-(2-methyl-propyl)-amino]-N-methyl-N-(1-pyridin-4-yl-piperidin-4-yl)-2,3-dihydro-1H-indene-5-carboxylic acid amide]?
**A.** inhibition at 10 µM [1]: 100%; inhibition at 10 µM [2]: 107%

**Q.** What does the source list for `CN(CCC1CCN(c2ccncc2)CC1)C(=O)c1ccc2c(c1)[C@H](NC(=O)c1ccccc1Cl)CC2` [Example H-66, (3R)-3-[(2-Chloro-benzoyl)amino]-N-methyl-N-[2-(1-pyridin-4-yl-piperidin-4-yl)-ethyl]-2,3-dihydro-1H-indene-5-carboxylic acid amide]?
**A.** inhibition at 10 µM [1]: 93%; inhibition at 10 µM [2]: 99%

**Q.** Which inhibition at 10 µM [1] does the source give for `CN(C(=O)c1ccc2c(c1)[C@H](NC(=O)c1ccccc1C(C)(C)C)CC2)C1CCN(c2ccncc2)CC1` [Example H-67, (3R)-3-[(2-tert-Butyl-benzoyl)amino]-N-methyl-N-(1-pyridin-4-yl-piperidin-4-yl)-2,3-dihydro-1H-indene-5-carboxylic acid amide] here?
**A.** The inhibition at 10 µM was 100%.

**Q.** And the inhibition at 10 µM [2]?
**A.** The inhibition at 10 µM was 102%.

**Q.** How did the inhibition at 10 µM [1] turn out when `CC(C)CS(=O)(=O)N[C@@H]1CCc2ccc(C(=O)N(C)C3CCN(c4ccncc4)CC3)cc21` [Example H-68, (3R)-N-Methyl-3-[(2-methyl-propylsulfonyl)amino]-N-(1-pyridin-4-yl-piperidin-4-yl)-2,3-dihydro-1H-indene-5-carboxylic acid amide] was run?
**A.** Its inhibition at 10 µM is 100%.

**Q.** And the inhibition at 10 µM [2]?
**A.** Its inhibition at 10 µM is 104%.
